# Molecular target: T1, human H4 receptor (Homo sapiens, UniProt Q9H3N8)
# T1 construct: expressed in transfected cells
# Assay: [3H]Histamine binding on membranes of CHO cells stably expressing human H4 receptor
# Settings: not given
# Summary of the method: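 Nonspecific binding defined with 10 μM JNJ 7777120. Bound radioactivity collected on polyethyleneimine-treated GF/B filters and counted by liquid scintillation.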
row,Ki or IC50 activity class [µM],Structure (SMILES)
1,< 1,"CN1CCC(OC(c2cccc(OCC3CCCN(C)C3)c2)c2nc3ccccc3s2)CC1 (stereo not shown) [Example 379, 2-[[3-(1-methylpiperidin-3-ylmethoxy)phenyl](1-methylpiperidin-4-yloxy)methyl]benzothiazole]"
2,< 0.03,"CN1CCC(OC(c2cccc(SCCCCCN)c2)c2nc3ccccc3[nH]2)CC1 (stereo not shown) [Example 381, 5-{3-[(1H-benzimidazol-2-yl)(1-methylpiperidin-4-yloxy)methyl]phenylsulfanyl}pentylamine]"
3,< 0.03,"CN1CCC(OC(c2cccc(OC3CCNC3)c2)c2nc3ccccc3s2)CC1 (stereo not shown) [Example 382, 2-{(1-methylpiperidin-4-yloxy)[3-(pyrrolidin-3-yloxy)phenyl]methyl}benzothiazole]"
4,< 0.3,"CN1CCC(OC(c2cccc(OC3CCNC3)c2)c2nc3ccccc3s2)CC1 (stereo not shown) [Example 383, 2-{(1-methylpiperidin-4-yloxy)[3-(pyrrolidin-3-yloxy)phenyl]methyl}benzothiazole]"
5,< 0.3,"CN1CCC(OC(c2cccc(C=CCCCO)c2)c2nc3ccccc3s2)CC1 (stereo not shown) [Example 384, 5-{3-[benzothiazol-2-yl(1-methylpiperidin-4-yloxy)methyl]phenyl}pent-4-en-1-ol]"
6,< 0.3,"CN1CCC(OC(c2cccc(C=CCCCO)c2)c2nc3ccccc3[nH]2)CC1 (stereo not shown) [Example 389, 5-{3-[(1H-benzimidazol-2-yl)(1-methylpiperidin-4-yloxy)methyl]phenyl}pent-4-en-1-ol]"
7,< 0.03,"CN1CCC(OC(c2cccc(C=CCCCO)c2)c2nc3ccccc3s2)CC1 (stereo not shown) [Example 390, 5-{3-[(benzothiazol-2-yl)(1-methylpiperidin-4-yloxy)methyl]phenyl}pent-4-en-1-ol]"
8,< 1,"CN1CCC(OC(c2cccc(OCCCCCN3CCN(C(=O)OC(C)(C)C)CC3)c2)c2nc3ccccc3[nH]2)CC1 (stereo not shown) [Example 391, 4-(5-{3-[(1H-benzimidazol-2-yl)(1-methylpiperidin-4-yloxy)methyl]phenoxy}pentyl)piperazine-1-carboxylic acid tert-butyl ester]"
9,< 0.03,"CN1CCC(OC(c2cccc(C#CCCNC(=N)N)c2)c2nc3ccccc3[nH]2)CC1 (stereo not shown) [Example 393, N-(4-{3-[(1H-benzimidazol-2-yl)(1-methylpiperidin-4-yloxy)methyl]phenyl}but-3-ynyl)guanidine]"
10,< 1,"CN1CCC(OC(c2cccc(C3CCN(C(=N)N)CC3)c2)c2nc3ccccc3[nH]2)CC1 (stereo not shown) [Example 394, 4-{3-[(1H-benzimidazol-2-yl)(1-methylpiperidin-4-yloxy)methyl]phenyl}piperidine-1-carboxamidine]"
11,< 1,"CN1CCC(OC(c2cccc(CCC3CCNCC3)c2)c2nc3ccccc3[nH]2)CC1 (stereo not shown) [Example 396, 2-{(1-methylpiperidin-4-yloxy)[3-(2-piperidin-4-yl-ethyl)phenyl]methyl}-1H-benzimidazole]"
12,< 0.3,"CN1CCC(OC(c2cccc(CCCCCNC(=N)N)c2)c2nc3ccccc3[nH]2)CC1 (stereo not shown) [Example 397, N-(5-{3-[(1H-benzimidazol-2-yl)(1-methylpiperidin-4-yloxy)methyl]phenyl}pentyl)guanidine]"
13,< 0.3,"CN1CCC(OC(c2cccc(SCCCc3cnc[nH]3)c2)c2nc3ccccc3[nH]2)CC1 (stereo not shown) [Example 398, 2-[{3-[3-(3H-imidazol-4-yl)propylsulfanyl]phenyl}(1-methylpiperidin-4-yloxy)methyl]-1H-benzimidazole]"
14,< 0.03,"CN1CCC(OC(c2cccc(OCCCCCN)c2)c2nc3ccccc3[nH]2)CC1 (stereo not shown) [Example 400, 5-{3-[(1H-benzimidazol-2-yl)(1-methylpiperidin-4-yloxy)methyl]phenoxy}pentylamine]"
15,< 0.3,"CC(=O)NC(=N)NCCSc1cccc(C(OC2CCN(C)CC2)c2nc3ccccc3[nH]2)c1 (stereo not shown) [Example 401, N-acetyl-N′-(2-{3-[(1H-benzimidazol-2-yl)(1-methylpiperidin-4-yloxy)methyl]phenylsulfanyl}ethyl)guanidine]"
16,< 0.3,"CN1CCC(OC(c2cccc(OC3CNC3)c2)c2nc3ccccc3s2)CC1 (stereo not shown) [Example 402, 2-[[3-(azetidin-3-yloxy)phenyl](1-methylpiperidin-4-yloxy)methyl]benzothiazole]"
17,< 0.3,"CN1CCC(OC(c2cccc(N3CC(O)C3)c2)c2nc3ccccc3s2)CC1 (stereo not shown) [Example 403, 1-{3-[benzothiazol-2-yl(1-methylpiperidin-4-yloxy)methyl]phenyl}azetidin-3-ol]"
18,< 0.3,"CN1CCC(OC(c2cccc(N3CCC(CO)C3)c2)c2nc3ccccc3s2)CC1 (stereo not shown) [Example 404, (1-{3-[benzothiazol-2-yl(1-methylpiperidin-4-yloxy)methyl]phenyl}pyrrolidin-3-yl)methanol]"

row,Ki or IC50 activity class [µM],Structure (SMILES)
1,< 0.3,"CN1CCC(OC(c2cccc(N3CCC(N)CC3)c2)c2nc3ccccc3s2)CC1 (stereo not shown) [Example 405, 1-{3-[benzothiazol-2-yl(1-methylpiperidin-4-yloxy)methyl]phenyl}piperidin-4-ylamine]"
2,< 0.03,"CN1CCC(OC(c2cccc(N3CCC(O)C3)c2)c2nc3ccccc3s2)CC1 (stereo not shown) [Example 406, 1-{3-[benzothiazol-2-yl(1-methylpiperidin-4-yloxy)methyl]phenyl}pyrrolidin-3-ol]"
3,< 0.3,"CC(=O)NC1CCN(c2cccc(C(OC3CCN(C)CC3)c3nc4ccccc4s3)c2)C1 (stereo not shown) [Example 408, N-(1-{3-[benzothiazol-2-yl(1-methylpiperidin-4-yloxy)methyl]phenyl}pyrrolidin-3-yl)acetamide]"
4,< 0.3,"CN1CCC(OC(c2cccc(C#CCCCn3ccnc3)c2)c2nc3ccccc3[nH]2)CC1 (stereo not shown) [Example 409, 2-[[3-(5-imidazol-1-ylpent-1-ynyl)phenyl](1-methylpiperidin-4-yloxy)methyl]-1H-benzimidazole]"
5,< 0.3,"CN1CCC(OC(c2cccc(C#CCCCn3cccn3)c2)c2nc3ccccc3[nH]2)CC1 (stereo not shown) [Example 410, 2-{(1-methylpiperidin-4-yloxy)[3-(5-pyrazol-1-yl-pent-1-ynyl)phenyl]methyl}-1H-benzimidazole]"
6,< 1,"CN1CCC(OC(c2cccc(N3CCC(O)CC3)c2)c2nc3ccccc3s2)CC1 (stereo not shown) [Example 411, 1-{3-[benzothiazol-2-yl(1-methylpiperidin-4-yloxy)methyl]phenyl}piperidin-4-ol]"
7,< 1,"CN1CCC(OC(c2cccc(CCc3c[nH]cn3)c2)c2nc3ccccc3[nH]2)CC1 (stereo not shown) [Example 412, 2-[{3-[2-(1H-imidazol-4-yl)ethyl]phenyl}(1-methylpiperidin-4-yloxy)methyl]-1H-benzimidazole]"
8,< 0.3,"CC(=O)OC1CCN(c2cccc(C(OC3CCN(C)CC3)c3nc4ccccc4s3)c2)CC1 (stereo not shown) [Example 413, acetic acid 1-{3-[benzothiazol-2-yl(1-methylpiperidin-4-yloxy)methyl]phenyl}piperidin-4-yl ester]"
9,< 0.3,"CN1CCC(OC(c2cccc(OC3CCNCC3)c2)c2nc3ccccc3s2)CC1 (stereo not shown) [Example 415, 2-{(1-methylpiperidin-4-yloxy)[3-(piperidin-4-yloxy)phenyl]methyl}benzothiazole]"
10,< 0.3,"CN1CCC(OC(c2cccc(C#CCCCn3nccn3)c2)c2nc3ccccc3[nH]2)CC1 (stereo not shown) [Example 416, 2-{(1-methylpiperidin-4-yloxy)[3-(5-[1,2,3]triazol-2-yl-pent-1-ynyl)phenyl]methyl}-1H-benzimidazole]"
11,< 1,"CN1CCC(OC(c2cccc(C#CCCCn3ccnn3)c2)c2nc3ccccc3[nH]2)CC1 (stereo not shown) [Example 417, 2-{(1-methylpiperidin-4-yloxy)[3-(5-[1,2,3]triazol-1-ylpent-1-ynyl)phenyl]methyl}-1H-benzimidazole]"
12,< 0.03,"CN1CCC(OC(c2cccc(C#CCNC(=N)N)c2)c2nc3ccccc3[nH]2)CC1 (stereo not shown) [Example 418, N-(3-{3-[(1H-benzimidazol-2-yl)(1-methylpiperidin-4-yloxy)methyl]phenyl}prop-2-ynyl)guanidine]"
13,< 1,"CN1CCC(OC(c2cccc(OCCCCCNCCCCN)c2)c2nc3ccccc3[nH]2)CC1 (stereo not shown) [Example 419, N1-(5-{3-[(1H-benzimidazol-2-yl)(1-methylpiperidin-4-yloxy)methyl]phenoxy}pentyl)butane-1,4-diamine]"
14,< 0.03,"CN1CCC(OC(c2cccc(C=CCCCN)c2)c2nc3ccccc3[nH]2)CC1 (stereo not shown) [Example 421, 5-{3-[(1H-benzimidazol-2-yl)(1-methylpiperidin-4-yloxy)methyl]phenyl}pent-4-enylamine]"
15,< 0.03,"CN1CCC(OC(c2cccc(OCC=CCO)c2)c2nc3ccccc3s2)CC1 (stereo not shown) [Example 422, 4-{3-[benzothiazol-2-yl(1-methylpiperidin-4-yloxy)methyl]phenoxy}but-2-en-1-ol]"
16,< 0.3,"CN1CCC(OC(c2cccc(N3CCC(N)C3)c2)c2nc3ccccc3s2)CC1 (stereo not shown) [Example 423, 1-{3-[benzothiazol-2-yl(1-methylpiperidin-4-yloxy)methyl]phenyl}pyrrolidin-3-ylamine]"
17,< 0.03,"CN1CCC(OC(c2nc3ccccc3[nH]2)c2cc(I)ccc2F)CC1 (stereo not shown) [Example 425, 2-[(2-fluoro-5-iodo-phenyl)(1-methylpiperidin-4-yloxy)methyl]-1H-benzimidazole]"
18,< 0.3,"CN1CCC(OC(c2cccc(C#CC3CN(C(=N)N)C3)c2)c2nc3ccccc3[nH]2)CC1 (stereo not shown) [Example 426, 3-{3-[(1H-benzimidazol-2-yl)(1-methylpiperidin-4-yloxy)methyl]phenylethynyl}azetidine-1-carboxamidine]"

# Same assay, conditions: human H4 receptor; evaluated in the GTPγ[35S] assay or in the [3H]histamine binding assay (not stated which per compound); Ki or IC50 class
row,Ki or IC50 activity class [µM],Structure (SMILES)
1,< 0.03,"CN1CCC(OC(c2cccc(N3CCC(O)C3)c2)c2nc3ccccc3s2)CC1 (stereo not shown) [Example 407, 1-{3-[benzothiazol-2-yl(1-methylpiperidin-4-yloxy)methyl]phenyl}pyrrolidin-3-ol]"

# — patent US8802664B2 (Bioproject, priority 2010, dated 2014)
